Results taken from US20230406860A1, “HETEROCYCLIC SPIRO COMPOUNDS AND METHODS OF USE” (AMGEN INC., priority 2020, published 2023).
Where two headings read alike, the source gives them in different places.

How the values were obtained:
[1] = tested on: MIA PaCa-2 (human pancreatic carcinoma) cells; assay: Cell viability assay (CellTiter-Glo), MIA PaCa-2; format: cell-based; conditions: 72 h
Protocol: (§1) MIA PaCa-2 (human pancreatic carcinoma; ATCC CRL-1420) or A549 (human lung carcinoma; ATCC CCL-185) cells were cultured in RPMI 1640 medium containing 10% fetal bovine serum and 1× penicillin/streptomycin/L-glutamine. Cells were seeded in 384-well plates at a density of 1.67E+04 cells/mL and incubated at 37° C., 5% CO2, overnight. Serially-diluted compound or DMSO was added to the cells, and plates were incubated at 37° C., 5% CO2 for 72 h. Cell viability was measured using a CellTiter-Glo® Luminescent Cell Viability Assay kit (Promega) according to the manufacturer's protocol. The luminescence signal of treated samples was normalized to DMSO control, and data were analyzed using a 4-parameter logistic model to calculate IC50 values.

[2] = tested on: A549 (human lung carcinoma) cells; assay: Cell viability assay (CellTiter-Glo), A549; format: cell-based; conditions: 72 h
Protocol: as §1

[3] = molecular target: GDP-bound KRAS protein (aa 1-169), containing both G12C and C118A amino acid substitutions (Homo sapiens, UniProt P01116, C118A/G12C); assay: Coupled nucleotide exchange assay (SOS-mediated, AlphaScreen); format: biochemical
Protocol: Coupled Nucleotide Exchange Assay:
For all subsequent steps, DTT was added to the reaction buffer at a final concentration of 1 mM. […] The assay plates were then read on a plate reader measuring luminescence signal. Signal intensity of compound-containing wells were normalized to DMSO control, and data were analyzed using a 4-parameter logistic model to calculate IC50 values.

[4] = 2 h compound pre-incubation, read-out: Avg 2 h Coupled exchange IC50
[5] = 20 h compound pre-incubation (values marked * in Table 6), read-out: Avg 20 h Coupled exchange IC50

Chain of GDP-bound KRAS protein (aa 1-169), containing both G12C and C118A amino acid substitutions (P01116 1-169 isoform P01116-2 G12C/C118A): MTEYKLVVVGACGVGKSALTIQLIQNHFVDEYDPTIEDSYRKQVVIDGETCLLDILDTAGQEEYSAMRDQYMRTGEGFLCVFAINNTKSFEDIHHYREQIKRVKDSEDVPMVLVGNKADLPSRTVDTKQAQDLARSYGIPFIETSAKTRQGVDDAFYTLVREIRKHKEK

Q: How did the IC50 [1] turn out when `C=CC(=O)N1CC2(CCN(c3nc4c(c(N[C@@H](CC(=O)NC)c5cccc(C#N)c5)n3)CCCC4)C2)C1` (single isomer, unassigned) [Example 1-21-1] was run?
A: Its IC50 is 10.5 µM.

Q: What about the IC50 [2] of the same compound?
A: The IC50 was greater than 25 µM.

Q: And the IC50 [3, 4]?
A: The IC50 was 9.085 µM.

Q: What does the source list for `C=CC(=O)N1CC2(CCN(c3nc4c(c(N[C@H](CC(=O)NC)c5cccc(C#N)c5)n3)CCCC4)C2)C1` (single isomer, unassigned) [Example 1-21-2]?
A: IC50 [1]: 14 µM; IC50 [2]: > 25 µM; IC50 [3, 4]: 129.95 µM

Q: How did the IC50 [1] turn out when `C=CC(=O)N1CC2(C[C@H](CO)N(c3nc4c(c(N[C@H](CC(=O)NC)CC(C)C)n3)CCCC4)C2)C1` (single isomer, unassigned) [Example 1-24-1] was run?
A: The IC50 was 5.99 µM.

Q: What about the IC50 [2] of the same compound?
A: Its IC50 is greater than 25 µM.

Q: And the IC50 [3, 4]?
A: The IC50 was 4.58 µM.

Q: `C=CC(=O)N1CC2(C[C@@H](CO)N(c3nc4c(c(N[C@H](CC(=O)NC)CC(C)C)n3)CCCC4)C2)C1` (single isomer, unassigned) [Example 1-24-2] was tested. Which IC50 [1] did it give?
A: Its IC50 is greater than 25 µM.

Q: What about the IC50 [2] of the same compound?
A: The IC50 was greater than 25 µM.

Q: What about the IC50 [3, 4] of the same compound?
A: Its IC50 is 59.1 µM.

Q: Which results are given for `C=CC(=O)N1CC2(CCN(c3nc4c(c(N[C@H](CC(=O)NC)CC(C)C)n3)CCCC4)C2)C1` [Example 1-1, (S)-3-((2-(2-acryloyl-2,6-diazaspiro[3.4]octan-6-yl)-5,6,7,8-tetrahydroquinazolin-4-yl)amino)-N,5-dimethylhexanamide]?
A: IC50 [1]: 0.887 µM; IC50 [2]: > 25 µM; IC50 [3, 4]: 0.702 µM

Q: Which results are given for `C=CC(=O)N1CC2(C1)CN(c1nc3c(c(N[C@H](CC(=O)NC)CC(C)C)n1)CCC(C)C3)CC2(F)F` (stereo partly drawn) [Example 1-2, (3S)-3-((2-(8,8-difluoro-2-(2-propenoyl)-2,6-diazaspiro[3.4]octan-6-yl)-7-methyl-5,6,7,8-tetrahydro-4-quinazolinyl)amino)-N,5-dimethylhexanamide]?
A: IC50 [1]: 0.047 µM; IC50 [2]: 15.1 µM; IC50 [3, 4]: 0.019 µM

Q: For `C=CC(=O)N1CC2(CCN(c3nc4c(c(N[C@H](CC(=O)NC)CC(C)C)n3)CCC(C)C4)C2)C1` (stereo partly drawn) [Example 1-3, (3S)-N,5-dimethyl-3-((7-methyl-2-(2-(2-propenoyl)-2,6-diazaspiro[3.4]octan-6-yl)-5,6,7,8-tetrahydro-4-quinazolinyl)amino)hexanamide], which IC50 [1] is on record?
A: Its IC50 is 0.217 µM.

Q: And the IC50 [2]?
A: The IC50 was 32.6 µM.

Q: And the IC50 [3, 4]?
A: Its IC50 is 0.216 µM.

Q: `C=CC(=O)N1CC2(CCN(c3nc4c(c(N[C@H](CC(=O)NC)CC(C)C)n3)CCC4)C2)C1` [Example 1-4, (3S)-N,5-dimethyl-3-((2-(2-(2-propenoyl)-2,6-diazaspiro[3.4]octan-6-yl)-6,7-dihydro-5H-cyclopenta[d]pyrimidin-4-yl)amino)hexanamide] was tested. Which IC50 [1] did it give?
A: The IC50 was 2.59 µM.

Q: What about the IC50 [2] of the same compound?
A: Its IC50 is greater than 5 µM.

Q: What about the IC50 [3, 4] of the same compound?
A: The IC50 was 2.37 µM.

Q: For `C=CC(=O)N1CC2(CCN(c3nc(N[C@H](CC(=O)NC)CC(C)C)c4ccccc4n3)C2)C1` [Example 1-5, (3S)-N,5-dimethyl-3-((2-(2-(2-propenoyl)-2,6-diazaspiro[3.4]octan-6-yl)-4-quinazolinyl)amino)hexanamide], which IC50 [1] is on record?
A: Its IC50 is 1.23 µM.

Q: And the IC50 [2]?
A: The IC50 was 18.4 µM.

Q: And the IC50 [3, 4]?
A: Its IC50 is 1.1 µM.

Q: `C=CC(=O)N1CC2(CCN(c3cc4ccccc4c(N[C@H](CC(=O)NC)CC(C)C)n3)C2)C1` [Example 1-6, (3S)-N,5-dimethyl-3-((3-(2-(2-propenoyl)-2,6-diazaspiro[3.4]octan-6-yl)-1-isoquinolinyl)amino)hexanamide] was tested. Which IC50 [1] did it give?
A: Its IC50 is 8.21 µM.

Q: And the IC50 [2]?
A: Its IC50 is greater than 25 µM.

Q: What about the IC50 [3, 5] of the same compound?
A: The IC50 was 0.424 µM.

Q: With `C=CC(=O)N1CC2(CCN(c3nc(N[C@H](CC(=O)NC)CC(C)C)c4occc4n3)C2)C1` [Example 1-7, (3S)-N,5-dimethyl-3-((2-(2-(2-propenoyl)-2,6-diazaspiro[3.4]octan-6-yl)furo[3,2-d]pyrimidin-4-yl)amino)hexanamide] as the compound, how does the IC50 [1] read?
A: The IC50 was 58.1 µM.

Q: What about the IC50 [2] of the same compound?
A: Its IC50 is greater than 5 µM.

Q: What about the IC50 [3, 5] of the same compound?
A: Its IC50 is 0.494 µM.

Q: `C=CC(=O)N1CC2(CCN(c3nc(N[C@H](CC(=O)NC)CC(C)C)c4c(n3)[C@H](C)CCC4)C2)C1` [Example 1-8, (3S)-N,5-dimethyl-3-(((8R)-8-methyl-2-(2-(2-propenoyl)-2,6-diazaspiro[3.4]octan-6-yl)-5,6,7,8-tetrahydro-4-quinazolinyl)amino)hexanamide] was tested. Which IC50 [1] did it give?
A: The IC50 was 1 µM.

Q: What about the IC50 [2] of the same compound?
A: The IC50 was greater than 5 µM.

Q: And the IC50 [3, 4]?
A: The IC50 was 1.1 µM.

Q: With `C=CC(=O)N1CC2(CCN(c3nc4c(c(N[C@H](CC(=O)NC)CC(C)C)n3)CN(C(C)=O)C4)C2)C1` [Example 1-9, (3S)-3-((6-acetyl-2-(2-(2-propenoyl)-2,6-diazaspiro[3.4]octan-6-yl)-6,7-dihydro-5H-pyrrolo[3,4-d]pyrimidin-4-yl)amino)-N,5-dimethylhexanamide] as the compound, how does the IC50 [1] read?
A: The IC50 was greater than 5 µM.

Q: What about the IC50 [2] of the same compound?
A: The IC50 was greater than 5 µM.

Q: What about the IC50 [3, 5] of the same compound?
A: Its IC50 is 0.472 µM.

Q: For `C=CC(=O)N1CC2(CCN(c3nc(N[C@H](CC(=O)NC)CC(C)C)c4nn(C)cc4n3)C2)C1` [Example 1-10, (3S)-N,5-dimethyl-3-((2-methyl-5-(2-(2-propenoyl)-2,6-diazaspiro[3.4]octan-6-yl)-2H-pyrazolo[4,3-d]pyrimidin-7-yl)amino)hexanamide], which IC50 [1] is on record?
A: Its IC50 is 3.63 µM.

Q: And the IC50 [2]?
A: Its IC50 is greater than 25 µM.

Q: What about the IC50 [3, 4] of the same compound?
A: Its IC50 is 0.916 µM.

Q: Which results are given for `C=CC(=O)N1CC2(CCN(c3nc(N[C@H](CC(=O)NC)CC(C)C)c4ncsc4n3)C2)C1` [Example 1-11, (3S)-N,5-dimethyl-3-((5-(2-(2-propenoyl)-2,6-diazaspiro[3.4]octan-6-yl)[1,3]thiazolo[5,4-d]pyrimidin-7-yl)amino)hexanamide]?
A: IC50 [1]: > 5 µM; IC50 [2]: > 5 µM; IC50 [3, 5]: 0.395 µM

Q: What does the source list for `C=CC(=O)N1CC2(CCN(c3nc4c(c(N[C@H](CC5=NC(C)(C)C(=O)N5)CC(C)C)n3)CCCC4)C2)C1` [Example 1-12, 5,5-dimethyl-2-((2S)-4-methyl-2-((2-(2-(2-propenoyl)-2,6-diazaspiro[3.4]octan-6-yl)-5,6,7,8-tetrahydro-4-quinazolinyl)amino)pentyl)-3,5-dihydro-4H-imidazol-4-one]?
A: IC50 [1]: 10.5 µM; IC50 [2]: > 25 µM; IC50 [3, 4]: 3.93 µM

Q: For `C=CC(=O)N1CC2(CCN(c3nc4c(c(N[C@H](CC(=O)NC)CC(C)C)n3)COC4)C2)C1` [Example 1-13, (3S)-N,5-dimethyl-3-((2-(2-(2-propenoyl)-2,6-diazaspiro[3.4]octan-6-yl)-5,7-dihydrofuro[3,4-d]pyrimidin-4-yl)amino)hexanamide], which IC50 [1] is on record?
A: The IC50 was greater than 5 µM.

Q: What about the IC50 [2] of the same compound?
A: Its IC50 is greater than 5 µM.

Q: And the IC50 [3, 5]?
A: Its IC50 is 5.85 µM.

Q: How did the IC50 [1] turn out when `C=CC(=O)N1CC2(CCN(c3nc(N[C@H](CC(=O)NC)CC(C)C)c4c(ncn4C)n3)C2)C1` [Example 1-14, (3S)-N,5-dimethyl-3-((7-methyl-2-(2-(2-propenoyl)-2,6-diazaspiro[3.4]octan-6-yl)-7H-purin-6-yl)amino)hexanamide] was run?
A: Its IC50 is greater than 25 µM.

Q: And the IC50 [2]?
A: Its IC50 is greater than 25 µM.

Q: What about the IC50 [3, 4] of the same compound?
A: The IC50 was 196 µM.

Q: Which results are given for `C=CC(=O)N1CC2(CCN(c3nc(N[C@H](CC(=O)NC)CC(C)C)c4c(n3)[C@@H](C)CCC4)C2)C1` [Example 1-15, (3S)-N,5-dimethyl-3-(((8S)-8-methyl-2-(2-(2-propenoyl)-2,6-diazaspiro[3.4]octan-6-yl)-5,6,7,8-tetrahydro-4-quinazolinyl)amino)hexanamide]?
A: IC50 [1]: 2.26 µM; IC50 [2]: > 5 µM; IC50 [3, 4]: 4.42 µM

Q: Which results are given for `C=CC(=O)N1CC2(CCN(c3nc(N[C@H](CC(=O)NC)CC(C)C)c4ccn(C)c4n3)C2)C1` [Example 1-16, (3S)-N,5-dimethyl-3-((7-methyl-2-(2-(2-propenoyl)-2,6-diazaspiro[3.4]octan-6-yl)-7H-pyrrolo[2,3-d]pyrimidin-4-yl)amino)hexanamide]?
A: IC50 [1]: 4.6 µM; IC50 [2]: > 25 µM; IC50 [3, 5]: 0.918 µM

Q: With `C=CC(=O)N1CC2(CCN(c3nc(N[C@H](CC(=O)NC)CC(C)C)c4ncn(C)c4n3)C2)C1` [Example 1-17, (3S)-N,5-dimethyl-3-((9-methyl-2-(2-(2-propenoyl)-2,6-diazaspiro[3.4]octan-6-yl)-9H-purin-6-yl)amino)hexanamide] as the compound, how does the IC50 [1] read?
A: The IC50 was 2.46 µM.

Q: What about the IC50 [2] of the same compound?
A: The IC50 was greater than 25 µM.

Q: What about the IC50 [3, 4] of the same compound?
A: Its IC50 is 8.79 µM.

Q: What does the source list for `C=CC(=O)N1CC2(C1)CN(c1nc(N[C@H](CC(=O)NC)CC(C)C)c3ccccc3n1)CC2(F)F` [Example 1-18, (3S)-3-((2-(8,8-difluoro-2-(2-propenoyl)-2,6-diazaspiro[3.4]octan-6-yl)-4-quinazolinyl)amino)-N,5-dimethylhexanamide]?
A: IC50 [1]: 0.971 µM; IC50 [2]: 6.25 µM; IC50 [3, 4]: 0.334 µM

Q: `C=CC(=O)N1CC2(CCN(c3nc4c(c(N[C@H](CC(=O)NC)CC(C)C)n3)CCC(C)(C)C4)C2)C1` [Example 1-29, (3S)-3-((7,7-dimethyl-2-(2-(2-propenoyl)-2,6-diazaspiro[3.4]octan-6-yl)-5,6,7,8-tetrahydro-4-quinazolinyl)amino)-N,5-dimethylhexanamide] was tested. Which IC50 [1] did it give?
A: Its IC50 is 0.031 µM.

Q: And the IC50 [2]?
A: Its IC50 is greater than 25 µM.

Q: `C=CC(=O)N1CC2(CCN(c3nc4c(c(N[C@@H](CC(C)C)Cn5ccnn5)n3)CCC(C)(C)C4)C2)C1` [Example 1-47, 1-(6-(7,7-dimethyl-4-(((2S)-4-methyl-1-(1H-1,2,3-triazol-1-yl)-2-pentanyl)amino)-5,6,7,8-tetrahydro-2H-quinazolinyl)-2,6-diazaspiro[3.4]octan-2-yl)-2-propen-1-one] was tested. Which IC50 [1] did it give?
A: The IC50 was 0.485 µM.

Q: What about the IC50 [2] of the same compound?
A: Its IC50 is 14.1 µM.
